Experimental data as given in patent US20100273805A1, “SULPHIDE BRIDGED DERIVATIVES AS MODULATORS OF MGLUR5 733” (AstraZeneca AB, priority 2009, published 2010).

Key:
[1] = target: T1, human mGluR5d (Homo sapiens, UniProt P41594); test: FLIPR assay, mobilization of intracellular calcium in cells expressing human mGluR5d; type: cell-based; conditions: antagonism in cells expressing human mGluR5d, fluo-4 calcium signal; read-out: FLIPR hmGluR5d
T1 construct: expressed in transfected cells
From the text: Functional Assessment of mGluR5 Antagonism in Cell Lines Expressing mGluR5D
The properties of the compounds of the invention can be analyzed using standard assays for pharmacological activity. Examples of glutamate receptor assays are well known in the art as described in for example Aramori et al., Neuron 8:757 (1992), Tanabe et al., Neuron 8:169 (1992), Miller et al., J. Neuroscience 15: 6103 (1995), Balazs, et al., J. Neurochemistry 69:151 (1997). The methodology described in these publications is incorporated herein by reference. Conveniently, the compounds of the invention can be studied by means of an assay (FLIPR) that measures the mobilization of intracellular calcium, [Ca^2+]i in cells expressing mGluR5 or another assay (IP3) that measures inositol phosphate accumulation.
Cells expressing human mGluR5d as described in WO97/05252 cultured in a mixture of high glucose DMEM with Glutamax (31966-021) (500 mL), 10% dialyzed fetal bovine serum (Hyclone #SH30079.03)(56 mL), 200 ug/mL Hygromycin B (Invitrogen 45-0430, 50 mg/mL) (2.2 mL), 200 ug/mL Zeocin (Invitrogen #R250-01; 100 mg/mL) (1.1 mL) are seeded at a density of 15,000 cells per well on a black poly-D Lysin coated 384-plate with clear bottom (BD Biocoat 356663). Cells are allowed to adhere over night before experiments. All assays are done in a buffer containing 146 mM NaCl, 5 mM KCl, 1 mM MgCl2, 1 mM CaCl2, 20 mM HEPES, 1 mg/mL glucose and 1 mg/mL BSA Fraction IV (pH 7.4). Cell cultures in the 384-well plates are loaded for 60 minutes in the above mentioned buffer containing 3 μM of the acetoxymethyl ester form of the fluorescent calcium indicator fluo-4 (Molecular Probes, Eugene, Oreg.) in 0.025% pluronic acid (a proprietary, non-ionic surfactant polyol—CAS Number 9003-11-6). Following the loading period, the fluo-4 buffer is removed and the cellplate is washed three times with fresh assay buffer. FLIPR experiments are done using a laser setting of 1.0 W and 0.4 second CCD camera shutter speed with excitation and emission wavelengths of 488 nm and 562 nm, respectively.
Each experiment is initiated with 20 μl of buffer present in each well of the cell plate when 7.5 μl from the antagonist plate is added. After 30 minutes incubation in the dark at 25° C., 20 μL from the agonist plate is added to the wells. The fluorescence signal is sampled 60 times at 1 second intervals followed by 20 samples at 6 seconds intervals immediately after the agonist addition. Responses are measured as the difference between the peak height of the response to agonist, less the background fluorescence within the sample period. IC50 determinations are made using a […] least squares fitting program.

[2] = Determination of brain to plasma ratio in rat; type: in vivo; conditions: brain and plasma, female Sprague Dawley rats, drug in brain over drug in plasma, read-out: Brain/Plasma Ratio of compound in Rat
Method: Brain to plasma ratios are estimated in female Sprague Dawley rats. The compound is dissolved in water or another appropriate vehicle. For determination of brain to plasma ratio the compound is administrated as a subcutaneous, or an intravenous bolus injection, or an intravenous infusion, or an oral administration. At a predetermined time point after the administration a blood sample is taken with cardiac puncture. The rat is terminated by cutting the heart open, and the brain is immediately retained. The blood samples are collected in heparinized tubes and centrifuged within 30 minutes, in order to separate the plasma from the blood cells. The plasma is transferred to 96-well plates and stored at −20° C. until analysis. The brains are divided in half, and each half is placed in a pre-tarred tube and stored at −20° C. until analysis. Prior to the analysis, the brain samples are thawed and 3 mL/g brain tissue of distilled water is added to the tubes. The brain samples are sonicated in an ice bath until the samples are homogenized. Both brain and plasma samples are precipitated with acetonitrile. After centrifugation, the supernatant is diluted with 0.2% formic acid. Analysis is performed on a short reversed-phase HPLC column with rapid gradient elution and MSMS detection using a triple quadrupole instrument with electrospray ionisation and Selected Reaction Monitoring (SRM) acquisition. Liquid-liquid extraction may be used as an alternative sample clean-up. The samples are extracted, by shaking, to an organic solvent after addition of a suitable buffer. An aliquot of the organic layer is transferred to a new vial and evaporated to dryness under a stream of nitrogen. After reconstitution of the residuals the samples are ready for injection onto the HPLC column.

T1 sequence (P41594 21-942 isoform P41594-3 limits assumed): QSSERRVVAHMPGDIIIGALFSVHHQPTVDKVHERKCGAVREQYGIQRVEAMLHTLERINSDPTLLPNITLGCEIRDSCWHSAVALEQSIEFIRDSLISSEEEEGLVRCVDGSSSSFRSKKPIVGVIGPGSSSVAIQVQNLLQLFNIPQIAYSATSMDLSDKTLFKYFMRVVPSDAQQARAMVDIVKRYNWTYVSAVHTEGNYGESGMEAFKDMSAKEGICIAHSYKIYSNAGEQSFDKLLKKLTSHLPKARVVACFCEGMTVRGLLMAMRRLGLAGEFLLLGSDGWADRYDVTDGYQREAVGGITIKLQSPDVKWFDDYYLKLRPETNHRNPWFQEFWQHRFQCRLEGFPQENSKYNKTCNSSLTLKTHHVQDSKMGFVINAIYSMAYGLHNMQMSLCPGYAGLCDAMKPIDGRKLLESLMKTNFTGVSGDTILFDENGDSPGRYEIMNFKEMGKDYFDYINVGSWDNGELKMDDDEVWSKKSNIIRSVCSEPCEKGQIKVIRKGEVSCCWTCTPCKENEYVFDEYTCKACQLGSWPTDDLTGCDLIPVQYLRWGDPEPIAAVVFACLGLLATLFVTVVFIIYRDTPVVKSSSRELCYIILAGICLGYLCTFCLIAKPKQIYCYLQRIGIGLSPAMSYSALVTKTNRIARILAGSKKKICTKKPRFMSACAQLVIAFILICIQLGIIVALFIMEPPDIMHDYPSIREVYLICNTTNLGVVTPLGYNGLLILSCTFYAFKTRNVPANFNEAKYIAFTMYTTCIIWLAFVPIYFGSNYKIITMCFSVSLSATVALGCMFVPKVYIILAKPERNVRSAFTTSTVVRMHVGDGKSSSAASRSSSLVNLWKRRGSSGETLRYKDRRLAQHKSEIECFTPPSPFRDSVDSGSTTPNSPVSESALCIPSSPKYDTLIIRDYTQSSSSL

Work on `Cc1cccc(-c2cc([C@@H](C)Sc3nnc(-c4cn[nH]c(=O)c4)n3C)no2)c1` [Example 8.7, (R)-5-(4-Methy1-5-(1-(5-m-tolylisoxazol-3-yl)ethylthio)-4H-1,2,4-triazol-3-yl)pyridazin-3(2H)-one] yielded an IC50 [1] of 0.019 µM and a Kp [2] of 0.26.

Work on `Cc1cccc(-c2cc([C@@H](C)Sc3nnc(-c4ccn(C)c(=O)c4)n3C)no2)c1` [Example 8.6, (R)-1-Methyl-4-(4-methyl-5-(1-(5-m-tolylisoxazol-3-yl)ethylthio)-4H-1,2,4-triazol-3-yl)pyridin-2(1H)-one] yielded an IC50 [1] of 0.38 µM and a Kp [2] of 0.02.

Work on `Cc1cccc(-c2nc([C@@H](C)Sc3nnc(-c4ccn(C)c(=O)c4)n3C)no2)c1` [Example 8.4, (R)-1-Methyl-4-(4-methyl-5-(1-(5-m-tolyl-1,2,4-oxadiazol-3-yl)ethylthio)-4H-1,2,4-triazol-3-yl)pyridin-2(1H)-one] yielded an IC50 [1] of 0.03 µM and a Kp [2] of 0.16.

`Cc1cccc(-c2cc([C@@H](C)Sc3nnc(-c4cc[nH]c(=O)c4)n3C)no2)c1` [Example 8.5, (R)-4-(4-Methyl-5-(1-(5-m-tolylisoxazol-3-yl)ethylthio)-4H-1,2,4-triazol-3-yl)pyridin-2(1H)-one] showed an IC50 [1] of 0.146 µM and a Kp [2] of less than 0.01.

`Cc1cccc(-c2nc([C@@H](C)Sc3nnc(-c4cc[nH]c(=O)c4)n3C)no2)c1` [Example 8.3] showed an IC50 [1] of 0.024 µM and a Kp [2] of 0.09.

Compound `Cc1cccc(-c2nc([C@@H](C)Sc3nnc(-c4cn[nH]c(=O)c4)n3C)no2)c1` [Example 8.10, (R)-5-(4-Methyl-5-(1-(5-m-tolyl-1,2,4-oxadiazol-3-yl)ethylthio)-4H-1,2,4-triazol-3-yl)pyridazin-3(2H)-one] has an IC50 [1] of 0.041 µM and a Kp [2] of 0.04.

Compound `Cc1cccc(-n2nnc([C@@H](C)Sc3nnc(-c4cn[nH]c(=O)c4)n3C)n2)c1` [Example 8.8, (R)-5-(4-Methyl-5-(1-(2-m-tolyl-2H-tetrazol-5-yl)ethylthio)-4H-1,2,4-triazol-3-yl)pyridazin-3(2H)-one] has an IC50 [1] of 0.018 µM and a Kp [2] of less than 0.01.

For `Cc1cccc(-n2nnc([C@@H](C)Sc3nnc(-c4ccn(C)c(=O)c4)n3C)n2)c1` [Example 8.2, (R)-1-Methyl-4-(4-methyl-5-(1-(2-m-tolyl-2H-tetrazol-5-yl)ethylthio)-4H-1,2,4-triazol-3-yl)pyridin-2(1H)-one], the IC50 [1] was 0.087 µM and the Kp [2] was 0.1.

`C[C@@H](Sc1nnc(-c2cn[nH]c(=O)c2)n1C)c1nnn(-c2cccc(Cl)c2)n1` [Example 8.9, (R)-5-(5-(1-(2-(3-Chlorophenyl)-2H-tetrazol-5-yl)ethylthio)-4-methyl-4H-1,2,4-triazol-3-yl)pyridazin-3(2H)-one] gave an IC50 [1] of 0.018 µM and a Kp [2] of less than 0.015.

Compound `Cc1cccc(-n2nnc([C@@H](C)Sc3nnc(-c4cc[nH]c(=O)c4)n3C)n2)c1` [Example 8.1, (R)-4-(4-Methyl-5-(1-(2-m-tolyl-2H-tetrazol-5-yl)ethylthio)-4H-1,2,4-triazol-3-yl)pyridin-2(1H)-one] has an IC50 [1] of 0.019 µM and a Kp [2] of less than 0.01.
